Assay results from ChEMBL document CHEMBL1201862, “PubChem BioAssay data set” (2004).
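The compound was tested at five concentrations on cells cultured in 96-well plates, with a 48-hour exposure period. The concentration for 50% growth inhibition is given as GI50.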 Activity calls are given as the source filed them. No stated cut-off is given here; in the data, active = GI50 up to about 1.1 µM and inactive = higher.

Legend:
Assay in all cases: NCI-60 cell line screen, 48 h
UO-31 = system: UO-31
COLO 205 = system: COLO 205
HT-29 = system: HT-29
SK-MEL-2 = system: SK-MEL-2
A549 = system: A549
HOP-92 = system: HOP-92
NCI-H226 = system: NCI-H226
EKVX = system: EKVX
M19-MEL = system: M19-MEL
ACHN = system: ACHN
TK-10 = system: TK-10
OVCAR-3 = system: OVCAR-3
SK-MEL-28 = system: SK-MEL-28
SF-295 = system: SF-295
SF-539 = system: SF-539
HCC 2998 = system: HCC 2998
M14 = system: M14
Malme-3M = system: Malme-3M
SK-MEL-5 = system: SK-MEL-5
OVCAR-5 = system: OVCAR-5
NCI-H23 = system: NCI-H23
CAKI-1 = system: CAKI-1
OVCAR-8 = system: OVCAR-8
LXFL 529 = system: LXFL 529
LOX IMVI = system: LOX IMVI
OVCAR-4 = system: OVCAR-4
NCI-H460 = system: NCI-H460
KM-20L2 = system: KM-20L2
HOP-18 = system: HOP-18
DMS-273 = system: DMS-273
U-251 = system: U-251
RXF 393 = system: RXF 393
SNB-19 = system: SNB-19
HL-60 = system: HL-60
SNB-78 = system: SNB-78
KM12 = system: KM12
SF-268 = system: SF-268
NCI-H522 = system: NCI-H522
HOP-62 = system: HOP-62
DLD-1 = system: DLD-1
SNB-75 = system: SNB-75
SN12C = system: SN12C
786-0 = system: 786-0
SW-620 = system: SW-620
UACC-257 = system: UACC-257
DMS-114 = system: DMS-114
UACC-62 = system: UACC-62
K562 = system: K562
HCT-116 = system: HCT-116
MOLT-4 = system: MOLT-4
SK-OV-3 = system: SK-OV-3
IGROV-1 = system: IGROV-1
RPMI-8226 = system: RPMI-8226
CCRF-CEM = system: CCRF-CEM
XF498 = system: XF498
SR = system: SR
HCT-15 = system: HCT-15
A498 = system: A498

CCc1cc(C)cc2[n+]1CC=C2C.[O-][Cl+3]([O-])([O-])[O-]
GI50 (UO-31): > 100 µM (inactive)
GI50 (COLO 205): > 100 µM (inactive)
GI50 (HT-29): > 100 µM (inactive)
GI50 (SK-MEL-2): > 100 µM (inactive)
GI50 (A549): > 100 µM (inactive)
GI50 (HOP-92): 8.63 µM (inactive)
GI50 (NCI-H226): > 100 µM (inactive)
GI50 (EKVX): > 100 µM (inactive)
GI50 (M19-MEL): > 100 µM (inactive)
GI50 (ACHN): > 100 µM (inactive)
GI50 (TK-10): > 100 µM (inactive)
GI50 (OVCAR-3): 93.1 µM (inactive)
GI50 (SK-MEL-28): > 100 µM (inactive)
GI50 (SF-295): > 100 µM (inactive)
GI50 (SF-539): > 100 µM (inactive)
GI50 (HCC 2998): > 100 µM (inactive)
GI50 (M14): > 100 µM (inactive)
GI50 (Malme-3M): 35 µM (inactive)
GI50 (SK-MEL-5): > 100 µM (inactive)
GI50 (OVCAR-5): > 100 µM (inactive)
GI50 (NCI-H23): 66.1 µM (inactive)
GI50 (CAKI-1): 65.9 µM (inactive)
GI50 (OVCAR-8): > 100 µM (inactive)
GI50 (LXFL 529): 80.5 µM (inactive)
GI50 (LOX IMVI): > 100 µM (inactive)
GI50 (OVCAR-4): > 100 µM (inactive)
GI50 (NCI-H460): > 100 µM (inactive)
GI50 (KM-20L2): > 100 µM (inactive)
GI50 (HOP-18): 1.72 µM (inactive)
GI50 (DMS-273): 92 µM (inactive)
GI50 (U-251): > 100 µM (inactive)
GI50 (RXF 393): 27.3 µM (inactive)
GI50 (SNB-19): > 100 µM (inactive)
GI50 (HL-60): 18.2 µM (inactive)
GI50 (SNB-78): > 100 µM (inactive)
GI50 (KM12): > 100 µM (inactive)
GI50 (SF-268): > 100 µM (inactive)
GI50 (NCI-H522): 49.7 µM (inactive)
GI50 (HOP-62): > 100 µM (inactive)
GI50 (DLD-1): > 100 µM (inactive)
GI50 (SNB-75): > 100 µM (inactive)
GI50 (SN12C): > 100 µM (inactive)
GI50 (786-0): > 100 µM (inactive)
GI50 (SW-620): > 100 µM (inactive)
GI50 (UACC-257): 27.3 µM (inactive)

CCN(CC)C(=O)C/C(C)=N/NC(=O)c1ccncc1
GI50 (UO-31): > 100 µM (inactive)
GI50 (COLO 205): > 100 µM (inactive)
GI50 (DMS-114): > 100 µM (inactive)
GI50 (HT-29): > 100 µM (inactive)
GI50 (SK-MEL-2): > 100 µM (inactive)
GI50 (A549): > 100 µM (inactive)
GI50 (UACC-62): > 100 µM (inactive)
GI50 (HOP-92): > 100 µM (inactive)
GI50 (K562): > 100 µM (inactive)
GI50 (NCI-H226): > 100 µM (inactive)
GI50 (EKVX): > 100 µM (inactive)
GI50 (HCT-116): > 100 µM (inactive)
GI50 (MOLT-4): > 100 µM (inactive)
GI50 (TK-10): > 100 µM (inactive)
GI50 (OVCAR-3): > 100 µM (inactive)
GI50 (SK-MEL-28): > 100 µM (inactive)
GI50 (SF-295): > 100 µM (inactive)
GI50 (SK-OV-3): > 100 µM (inactive)
GI50 (SF-539): > 100 µM (inactive)
GI50 (HCC 2998): > 100 µM (inactive)
GI50 (M14): > 100 µM (inactive)
GI50 (Malme-3M): > 100 µM (inactive)
GI50 (SK-MEL-5): > 100 µM (inactive)
GI50 (OVCAR-5): > 100 µM (inactive)
GI50 (NCI-H23): > 100 µM (inactive)
GI50 (IGROV-1): > 100 µM (inactive)
GI50 (OVCAR-8): > 100 µM (inactive)
GI50 (LXFL 529): > 100 µM (inactive)
GI50 (LOX IMVI): > 100 µM (inactive)
GI50 (NCI-H460): > 100 µM (inactive)
GI50 (KM-20L2): > 100 µM (inactive)
GI50 (DMS-273): > 100 µM (inactive)
GI50 (RPMI-8226): > 100 µM (inactive)
GI50 (U-251): > 100 µM (inactive)
GI50 (RXF 393): > 100 µM (inactive)
GI50 (HL-60): > 100 µM (inactive)
GI50 (SNB-78): > 100 µM (inactive)
GI50 (CCRF-CEM): > 100 µM (inactive)
GI50 (KM12): > 100 µM (inactive)
GI50 (SF-268): > 100 µM (inactive)
GI50 (NCI-H522): > 100 µM (inactive)
GI50 (HOP-62): > 100 µM (inactive)
GI50 (DLD-1): > 100 µM (inactive)
GI50 (SNB-75): > 100 µM (inactive)
GI50 (786-0): > 100 µM (inactive)
GI50 (SW-620): > 100 µM (inactive)
GI50 (XF498): > 100 µM (inactive)
GI50 (UACC-257): > 100 µM (inactive)

CC/C=C/c1cc2c(c3[nH]ccc13)[C@@H](C)CC2C.CC/C=C/c1cc2cc[nH]c2c2c1C(C)C[C@@H]2C.CCc1cc2c(c3[nH]ccc13)[C@@H](C)CC2C (stereo partly drawn)
GI50 (UO-31): 16.6 µM (inactive)
GI50 (COLO 205): 20.9 µM (inactive)
GI50 (DMS-114): 16.8 µM (inactive)
GI50 (HT-29): 14.4 µM (inactive)
GI50 (SK-MEL-2): 15.4 µM (inactive)
GI50 (A549): 21.4 µM (inactive)
GI50 (NCI-H226): 15.2 µM (inactive)
GI50 (EKVX): 18.4 µM (inactive)
GI50 (HCT-116): 18.5 µM (inactive)
GI50 (M19-MEL): 18.3 µM (inactive)
GI50 (ACHN): 16.2 µM (inactive)
GI50 (TK-10): 22.1 µM (inactive)
GI50 (SK-MEL-28): 15.7 µM (inactive)
GI50 (SF-295): 16.6 µM (inactive)
GI50 (SF-539): 16.1 µM (inactive)
GI50 (HCC 2998): 3.08 µM (inactive)
GI50 (M14): 13.5 µM (inactive)
GI50 (Malme-3M): 20.2 µM (inactive)
GI50 (OVCAR-5): 19.9 µM (inactive)
GI50 (NCI-H23): 17.4 µM (inactive)
GI50 (CAKI-1): 15.1 µM (inactive)
GI50 (OVCAR-8): 17.2 µM (inactive)
GI50 (LXFL 529): 16.4 µM (inactive)
GI50 (LOX IMVI): 15.6 µM (inactive)
GI50 (OVCAR-4): 15.4 µM (inactive)
GI50 (NCI-H460): 15.2 µM (inactive)
GI50 (KM-20L2): 14.8 µM (inactive)
GI50 (HOP-18): 13.5 µM (inactive)
GI50 (DMS-273): 15.4 µM (inactive)
GI50 (U-251): 18 µM (inactive)
GI50 (RXF 393): 12.2 µM (inactive)
GI50 (SNB-19): 19.2 µM (inactive)
GI50 (HL-60): 18.3 µM (inactive)
GI50 (SNB-78): 17.2 µM (inactive)
GI50 (KM12): 16.8 µM (inactive)
GI50 (SF-268): 15.5 µM (inactive)
GI50 (NCI-H522): 15.6 µM (inactive)
GI50 (HOP-62): 16.3 µM (inactive)
GI50 (DLD-1): 13.5 µM (inactive)
GI50 (SNB-75): 10 µM (inactive)
GI50 (SN12C): 15.1 µM (inactive)
GI50 (786-0): 17 µM (inactive)
GI50 (SW-620): 16.9 µM (inactive)
GI50 (UACC-257): 16 µM (inactive)

CN(C)CCN1CCc2c([nH]c3ccccc23)C1c1cccnc1 (stereo not drawn)
GI50 (UO-31): 40.9 µM (inactive)
GI50 (DMS-114): > 100 µM (inactive)
GI50 (HT-29): > 100 µM (inactive)
GI50 (A549): > 100 µM (inactive)
GI50 (UACC-62): > 100 µM (inactive)
GI50 (HOP-92): 63.7 µM (inactive)
GI50 (K562): > 100 µM (inactive)
GI50 (EKVX): > 100 µM (inactive)
GI50 (SR): > 100 µM (inactive)
GI50 (HCT-116): > 100 µM (inactive)
GI50 (M19-MEL): > 100 µM (inactive)
GI50 (MOLT-4): > 100 µM (inactive)
GI50 (ACHN): 23 µM (inactive)
GI50 (HCT-15): > 100 µM
GI50 (TK-10): > 100 µM (inactive)
GI50 (OVCAR-3): > 100 µM (inactive)
GI50 (SK-MEL-28): > 100 µM (inactive)
GI50 (SF-295): > 100 µM (inactive)
GI50 (SK-OV-3): > 100 µM (inactive)
GI50 (SF-539): > 100 µM (inactive)
GI50 (HCC 2998): > 100 µM (inactive)
GI50 (M14): > 100 µM (inactive)
GI50 (SK-MEL-5): > 100 µM (inactive)
GI50 (OVCAR-5): > 100 µM (inactive)
GI50 (NCI-H23): > 100 µM (inactive)
GI50 (CAKI-1): > 100 µM (inactive)
GI50 (IGROV-1): > 100 µM (inactive)
GI50 (OVCAR-8): > 100 µM (inactive)
GI50 (OVCAR-4): > 100 µM (inactive)
GI50 (NCI-H460): > 100 µM (inactive)
GI50 (KM-20L2): > 100 µM (inactive)
GI50 (HOP-18): > 100 µM (inactive)
GI50 (DMS-273): > 100 µM (inactive)
GI50 (RPMI-8226): > 100 µM (inactive)
GI50 (U-251): > 100 µM (inactive)
GI50 (RXF 393): 20.2 µM (inactive)
GI50 (SNB-19): > 100 µM (inactive)
GI50 (HL-60): > 100 µM (inactive)
GI50 (SNB-78): > 100 µM (inactive)
GI50 (CCRF-CEM): > 100 µM (inactive)
GI50 (KM12): > 100 µM (inactive)
GI50 (SF-268): > 100 µM (inactive)
GI50 (NCI-H522): > 100 µM (inactive)
GI50 (A498): > 100 µM (inactive)
GI50 (HOP-62): > 100 µM (inactive)
GI50 (DLD-1): > 100 µM (inactive)
GI50 (SNB-75): 61.1 µM (inactive)
GI50 (SN12C): > 100 µM (inactive)
GI50 (786-0): > 100 µM (inactive)
GI50 (SW-620): > 100 µM (inactive)
GI50 (UACC-257): > 100 µM (inactive)
